Each structure is given as a SMILES string. Read-outs that look alike come from different tables or passages of the source. Where only a bound is given, the exact number is not on record here.

Results on 13 compounds are retold here after US20110319362A1, “STAT3 LIGANDS AND THERAPEUTIC USES THEREOF” (priority 2008, published 2011).

For one test, the target named is T1, STAT3 protein (Homo sapiens, UniProt P40763).
T1 construct: human STAT3 protein (residues 122-722) fused to His-tag; His-tag
Kind of test: In vitro competitive STAT3 binding assay (fluorescence polarization). The text has this: To quantitatively determine the binding affinities of STAT3 inhibitors to STAT3 protein, a sensitive and quantitative in vitro binding assay was developed based upon fluorescence polarization (FP) method. For this FP assay, 5-carboxyfluorescein (5-Fam) was coupled to a phosphopeptide (phospho-Tyr-Leu-Pro-Gln-Thr-Val-amide) with two beta-alanine and one glycine residues as the spacer between 5-Fam and the phosphopeptide to obtain 5-Fam-beta-Ala-beta-Ala-Gly-phospho-Tyr-Leu-Pro-Gln-Thr-Val-amide as the fluorescently tagged tracer, which was named as STT2 peptide. […] The recombinant human STAT3 protein (residues 122-722) fused to His-tag was stable and soluble.
Competitive binding experiments were carried out using 150 nM of STAT3 protein and 5 nM of STT2 peptide with different concentrations of a tested STAT3 inhibitor. For each experiment, two controls were included. One control contained STAT3 protein and STT2 peptide, and the second control contained STT2 peptide only. The polarization values were measured after 2-3 hours of incubation using an ULTRA READER (Tecan U.S. Inc., Research Triangle Park, N.C.). IC50 values, the inhibitor concentration at which 50% of the fluorescently tagged STT2 peptide is displaced by STAT3 inhibitors, was determined from a plot using nonlinear least-squares analysis using GRAPHPAD PRISM software (GraphPad Software, Inc., San Diego, Calif.). […]

Test [1] concerns MDA-MB-231 cancer cell line. Kind of test: Cell growth assay (WST-8). The class given is cell-based. The note with it: Homo sapiens, MDA-MB-231, 96 h; WST-8, 4 days; read-out: Inhibition of cell growth IC50, MDA-MB-231 cancer cell line. How it is done:
(§1) The effect of STAT3 compounds on cell growth was evaluated by a WST-8 [2-(2-methoxy-4-nitrophenyl)-3-(4-nitrophenyl)-5-(2,4-disulfophenyl)-2H-tetrazolium, monosodium salt assay (Dojindo Molecular Technologies, Inc). Cells (3000-4000 cells in each well) were cultured in 96-well tissue culture plates in medium (200 μL) containing various concentrations of STAT3 compounds for 4 days. At the end of incubation, WST-8 dye (20 μL) was added to each well and incubated for an additional 1-3 h, and then the absorbance was measured in a microplate reader (Molecular Devices) at 450 nm. Cell growth inhibition was evaluated as the ratio of the absorbance of the sample to that of the control.

In test [2] the test system is MDA-MB-468 cancer cell line. Put plainly: Cell growth assay (WST-8). The test is classed as cell-based. Conditions: Homo sapiens, MDA-MB-468, 96 h; WST-8, 4 days; read-out: Inhibition of cell growth IC50, MDA-MB-468 cancer cell line. How it is done: as §1
Setting [3] is: FP competitive binding, fluorescently tagged STT2 peptide tracer, read-out: Binding affinities to STAT3 IC50.

T1 sequence (P40763 122-722): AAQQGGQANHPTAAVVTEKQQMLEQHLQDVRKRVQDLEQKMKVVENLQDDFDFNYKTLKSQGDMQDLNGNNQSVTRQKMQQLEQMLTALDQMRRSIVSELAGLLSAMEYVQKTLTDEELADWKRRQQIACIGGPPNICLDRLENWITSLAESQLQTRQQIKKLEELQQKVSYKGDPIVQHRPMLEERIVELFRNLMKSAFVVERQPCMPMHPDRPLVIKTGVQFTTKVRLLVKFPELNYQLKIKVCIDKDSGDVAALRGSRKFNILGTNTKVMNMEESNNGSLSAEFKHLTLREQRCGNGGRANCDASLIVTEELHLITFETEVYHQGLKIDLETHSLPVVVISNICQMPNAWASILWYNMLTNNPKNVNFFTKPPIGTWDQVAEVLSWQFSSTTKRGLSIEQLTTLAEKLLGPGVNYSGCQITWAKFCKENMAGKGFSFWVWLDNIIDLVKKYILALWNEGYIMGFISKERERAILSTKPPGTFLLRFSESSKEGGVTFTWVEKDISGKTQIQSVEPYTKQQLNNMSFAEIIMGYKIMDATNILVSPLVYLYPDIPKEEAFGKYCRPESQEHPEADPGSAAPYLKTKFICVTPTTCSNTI

As to `CCCCCCCCCCCCCCCCNC(=O)[C@H](CCC(N)=O)NC(=O)[C@@H]1CC[C@@H]2CCCC[C@H](NC(=O)[C@H](Cc3ccc(OP(=O)(O)O)cc3)NC(=O)CCN3CCN(C)CC3)C(=O)N21`, the IC50 is < 5 µM at STAT3 protein, > 20 µM in test [1] and > 20 µM in test [2].

`CCCCCCCCCCCCCCCCN1CCN(CCC(=O)N[C@@H](Cc2ccc(OP(=O)(O)O)cc2)C(=O)N[C@H]2CCCCC3CC[C@@H](C(=O)NCCN4CCNC4=O)N3C2=O)CC1` (stereo partly drawn): the IC50 at STAT3 protein (setting [3]) is < 5 µM; in test [1], < 30 µM; in test [2], < 20 µM.

For `CCCCCCCCCCCCCCCCN1CCN(CCC(=O)N[C@@H](Cc2ccc(OP(=O)(O)O)cc2)C(=O)N[C@H]2CCCCC3CC[C@@H](C(=O)N[C@H](CO)Cc4c[nH]cn4)N3C2=O)CC1` (stereo partly drawn), the concentration for half-maximal inhibition (IC50) on STAT3 protein (setting [3]) was < 5 µM; in test [1], < 20 µM; in test [2], < 20 µM.

As to `CC(=O)N[C@@H](Cc1ccc(OP(=O)(O)O)cc1)C(=O)N[C@H]1CCCC[C@H]2CC[C@@H](C(=O)N[C@@H](CCC(N)=O)C(=O)NCc3ccccc3)N2C1=O` [Example 1], the IC50 is < 1 µM at STAT3 protein (setting [3]), > 20 µM in test [1] and > 100 µM in test [2].

With `CC(=O)N[C@@H](Cc1ccc(OC(C(=O)O)C(=O)O)cc1)C(=O)N[C@H]1CCCCC2CC[C@@H](C(=O)N[C@@H](CCC(N)=O)C(=O)NCc3ccccc3)N2C1=O` (stereo partly drawn), the half-maximal inhibitory concentration (IC50) at STAT3 protein (setting [3]) is < 10 µM; in test [1], > 50 µM; in test [2], > 100 µM.

For the compound `CNC(=O)[C@H](CCC(N)=O)NC(=O)[C@@H]1CC[C@@H]2CCCC[C@H](NC(=O)[C@H](Cc3ccc(OP(=O)(O)O)cc3)NC(=O)OCc3ccccc3)C(=O)N21` [Example 13], the figures for the IC50 (on STAT3 protein; in test [1]; in test [2]) were < 1 µM, > 100 µM and > 100 µM, respectively.

In the case of `NC(=O)CC[C@H](NC(=O)[C@@H]1CC[C@@H]2CCCC[C@H](NC(=O)CCc3ccc(CCC(=O)O)cc3)C(=O)N21)C(=O)NCc1ccccc1` [Example 5], the IC50 at STAT3 protein (setting [3]) is > 100 µM; in test [1], > 50 µM; in test [2], > 100 µM.

Take `N[C@@H](Cc1ccc(CP(=O)(O)O)cc1)C(=O)N[C@H]1CCCC[C@H]2CC[C@@H](C(=O)N[C@@H](Cc3c[nH]cn3)C(=O)NCc3ccccc3)N2C1=O` [Example 26]: the 50% inhibitory concentration (IC50) at STAT3 protein (setting [3]) is > 10 µM; in test [1], > 100 µM; in test [2] it was > 100 µM.

In the case of `CCCCCCCCCCCCCCCC(=O)N[C@@H](Cc1ccc(OP(=O)(O)O)cc1)C(=O)NC1CCCC[C@H]2CC[C@@H](C(=O)N[C@@H](CCC(N)=O)C(=O)NCc3ccccc3)N2C1=O` (stereo partly drawn) [Example 37], the IC50 at STAT3 protein is < 10 µM; in test [1], < 50 µM; in test [2] it was < 50 µM.

As to `CCCCCCCCCCCCCCCCN1CCN(CCC(=O)N[C@@H](Cc2ccc(OP(=O)(O)O)cc2)C(=O)N[C@H]2CCCCC3CC[C@@H](C(=O)NCCCC(O)CO)N3C2=O)CC1` (stereo partly drawn), the IC50 is < 10 µM on STAT3 protein (setting [3]), < 20 µM in test [1] and < 20 µM in test [2].

For the compound `O=C(CCc1ccccc1)N[C@@H](Cc1ccc(OP(=O)(O)O)cc1)C(=O)N[C@H]1CCCCC2CC[C@@H](C(=O)N[C@@H](CCC(=O)NC(c3ccccc3)(c3ccccc3)c3ccccc3)C(=O)NCc3ccccc3)N2C1=O` (stereo partly drawn), the IC50 is < 20 µM at STAT3 protein (setting [3]), > 100 µM in test [1] and > 50 µM in test [2].

For the compound `NC(=O)CC[C@H](NC(=O)[C@@H]1CCC2CCCC[C@H](NC(=O)CCc3ccc(OP(=O)(O)O)cc3)C(=O)N21)C(=O)NCc1ccccc1` (stereo partly drawn), the IC50 is < 5 µM on STAT3 protein, > 100 µM in test [1] and > 100 µM in test [2].

As for `CN[C@@H](Cc1ccc(OC(C(=O)O)C(=O)O)cc1)C(=O)N[C@H]1CCCCC2CC[C@@H](C(=O)N[C@@H](Cc3c[nH]cn3)C(=O)NCc3ccccc3)N2C1=O` (stereo partly drawn), the IC50 on STAT3 protein (setting [3]) is > 10 µM; in test [1] it was > 100 µM; in test [2], > 100 µM.
